In this test the target is T1, Stimulator of interferon genes protein [R71H,G230A,H232R,R293Q] (Homo sapiens, UniProt Q86WV6, G230A/H232R/R293Q/R71H).
T1 construct: gene STING1
Kind of test: STING Biochemical [3H]cGAMP Competition Assay. From the text: The binding assay employs STING receptor obtained from Hi-Five cell membranes overexpressing full-length HAQ STING prepared in-house and tritiated cGAMP ligand also purified in-house.

This is an account of results in BindingDB's records for patent US10730849 (Merck Sharp & Dohme Corp., 2020).

T1 sequence (Q86WV6 whole entry R71H/G230A/H232R/R293Q, looked up): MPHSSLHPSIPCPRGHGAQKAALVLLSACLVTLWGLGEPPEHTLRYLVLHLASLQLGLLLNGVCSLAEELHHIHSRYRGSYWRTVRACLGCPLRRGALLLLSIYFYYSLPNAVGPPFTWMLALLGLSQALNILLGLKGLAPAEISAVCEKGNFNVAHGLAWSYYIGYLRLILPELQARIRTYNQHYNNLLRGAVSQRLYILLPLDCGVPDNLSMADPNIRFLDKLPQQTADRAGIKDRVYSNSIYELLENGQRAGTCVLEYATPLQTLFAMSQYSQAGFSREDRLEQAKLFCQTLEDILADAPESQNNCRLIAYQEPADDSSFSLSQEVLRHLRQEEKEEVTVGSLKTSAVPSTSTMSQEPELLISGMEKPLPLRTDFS

Usually EC50 stands for the concentration giving half of the maximal effect. The compound `COc1cc2cc(C(=O)CCC(=O)OC(C)(C)C)sc2cc1OC` [US10730849, Example 12] registered an EC50 of 5.99 µM.
